Test results reported in article PMC7733455, “A novel multistage antiplasmodial inhibitor targeting Plasmodium falciparum histone deacetylase 1” (Cell Discovery, 2020).
Where two headings read alike, the source gives them in different places.

How the values were obtained:
[1] = system: P. falciparum 3D7; assay: 3-day SYBR Green I growth inhibition assay (GIA), strain 3D7; assay type: cell-based, Plasmodium falciparum; conditions: 3-day SYBR Green I GIA, drug-sensitive strain 3D7, read-out: Antiplasmodial activity EC50, 3D7
Method in brief: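 Sorbitol-synchronized ring-stage parasites at 1% parasitemia and 2% hematocrit, cultured 72 h with compounds at 1% DMSO final. Growth read by SYBR Green I staining. EC50 from curve fitting.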

[2] = system: P. falciparum C2A; assay: 3-day SYBR Green I GIA, strain C2A; assay type: cell-based; conditions: Plasmodium falciparum, read-out: Resistant isolates EC50, C2A
Protocol: (§1) A 3-day SYBR Green I inhibition EC50 assay was performed as described previously. Briefly, highly synchronized ring-stage parasites by 5% sorbitol (1% parasitemia and 2% hematocrit) were incubated in a 96-well plate with compounds in a total volume of 200 μL. […] The parasites were cultured for 72 h before SYBR Green I staining as described above. The EC50 was calculated by GraphPad Prism. DHA was used as a positive control, and the final concentration of DMSO was 1%.

[3] = system: P. falciparum CP286; assay: 3-day SYBR Green I GIA, strain CP286; assay type: cell-based; conditions: Plasmodium falciparum; CP286 resistant to pyrimethamine and chloroquine; read-out: Resistant isolates EC50, CP286
Protocol: as §1

[4] = system: P. falciparum isolate 6218; assay: 3-day SYBR Green I GIA, field isolate 6218; assay type: cell-based; conditions: Plasmodium falciparum; artemisinin- and piperaquine-resistant isolate; read-out: Resistant isolates EC50, 6218
Protocol: as §1

[5] = system: drug-sensitive and multidrug-resistant strains of P. falciparum; assay: 3-day SYBR Green I GIA, summary over several strains; assay type: cell-based; conditions: Plasmodium falciparum
Protocol: as §1

[6] = Liver microsome metabolism assay, mouse; assay type: in vitro ADME; conditions: for half-life at 1 µM: mouse, liver microsomes
Protocol: Liver microsomes (0.5 mg/mL) were purchased from Corning. Ketanserin was selected as a positive control. The tested compounds were first dissolved in DMSO to a concentration of 10 mM and then diluted to 0.5 mM with acetonitrile. Liver microsome buffer was used to dilute the compounds to a working concentration of 1.5 µM, 30 µL of which was mixed with 15 µL of 6 mM NADPH at 37 °C. At 0, 5, 15, 30, and 45 min after incubation, 135 µL of acetonitrile was added to quench the reaction. The mixture was shaken on a vortex mixer (IKA, MTS 2/4) for 10 min at 600 rpm/min and then centrifuged at 5594× g for 15 min (Thermo Multifuge×3R). The supernatant was diluted 1:1 into distilled water, and analyzed by LC-MS/MS.

[7] = system: P. yoelii; assay: In vivo blood-stage inhibition assay; parameters: species or system Plasmodium yoelii in BALB/c mice
Protocol: Experiment 1: Five female BALB/c mice (6 weeks, 18 g) from each experimental group were infected with 1 × 10^5 rodent malaria parasite P. yoelii via intraperitoneal (i.p) injection. After 24 h, the mice were treated with 30, 60, or 90 mg/kg/day JX21108 via i.p injection and 20 mg/kg/day piperaquine phosphate (PPQ) as a positive control for 5 days. DMSO (5%) was used as a blank control.
Experiment 2: To analyze the differences in drug potency between racemic and enantiopure forms of JX21108, five female BALB/c mice (6 weeks, 18 g) per group were treated with 60 mg/kg/day (+)-JX21108, (−)-JX21108, or JX21108 as described above. Blood smears were made daily from the blood of veins and stained by Giemsa. Parasitemia was counted from at least 5000 RBCs by microscopy. The bodyweight of the mice and the number of deaths were recorded daily. All the graphs were generated by GraphPad Prism. All experimental procedures followed the National Institutes of Health Guide for the Care and Use of Laboratory Animals, as well as the guidelines of the Animal Welfare and Committee of Institut Pasteur of Shanghai, Chinese Academy of Science, IACUC issue No. A2018009.

[8] = system: P. berghei-ANKA-GFP-luc sporozoites; assay: In vivo liver-stage parasite inhibition assay; parameters: species or system Plasmodium berghei in BALB/c mice
Protocol: An in vivo liver-stage parasite inhibition assay was conducted as described previously[68],[69]. Briefly, five female BALB/c mice (6 weeks, 18 g) per group were infected with 5000 P. berghei-ANKA-GFP-luc sporozoites by i.v injection followed immediately by i.v.-administered JX21108 at a single dose of 30 mg/kg or 60 mg/kg (day 0). The β-cyclodextrin was used as a blank control. For fluorescence detection, 3 mg of D-luciferin sodium (Sinochrome BC-220–10) in 100 μL of ddH2O was i.p. injected into each mouse. The fluorescence signals were visualized by an IVIS Lumina series (PerkinElmer) on days 1–4, 6, and 8 after infection. All experimental procedures followed the National Institutes of Health Guide for the Care and Use of Laboratory Animals, as well as the guidelines of the Animal Welfare and Committee of Institut Pasteur of Shanghai, Chinese Academy of Science, IACUC issue No. A2018009.

[9] = system: 3D7^HDAC1-glmS; assay: Sensitivity of transgenic parasites to JX21108, 3D7^HDAC1-glmS; assay type: cell-based, Plasmodium falciparum
Protocol: Highly synchronized schizont-stage parasites were prepared and treated as described above, with adjustments. […] After washing, parasites were cultured in new CM for another 68 h. Parasite growth was monitored by SYBR Green I staining, as described above. The EC50 was calculated by GraphPad Prism.

[10] = target: T1, hHDAC1 (Homo sapiens, UniProt Q13547); assay: Human HDAC inhibition assay, hHDAC1; assay type: biochemical; conditions: performed only once; read-out: Inhibitory Activity IC50, hHDAC1
T1 construct: purchased BPS Bioscience 50058
T1 sequence (Q13547 whole entry): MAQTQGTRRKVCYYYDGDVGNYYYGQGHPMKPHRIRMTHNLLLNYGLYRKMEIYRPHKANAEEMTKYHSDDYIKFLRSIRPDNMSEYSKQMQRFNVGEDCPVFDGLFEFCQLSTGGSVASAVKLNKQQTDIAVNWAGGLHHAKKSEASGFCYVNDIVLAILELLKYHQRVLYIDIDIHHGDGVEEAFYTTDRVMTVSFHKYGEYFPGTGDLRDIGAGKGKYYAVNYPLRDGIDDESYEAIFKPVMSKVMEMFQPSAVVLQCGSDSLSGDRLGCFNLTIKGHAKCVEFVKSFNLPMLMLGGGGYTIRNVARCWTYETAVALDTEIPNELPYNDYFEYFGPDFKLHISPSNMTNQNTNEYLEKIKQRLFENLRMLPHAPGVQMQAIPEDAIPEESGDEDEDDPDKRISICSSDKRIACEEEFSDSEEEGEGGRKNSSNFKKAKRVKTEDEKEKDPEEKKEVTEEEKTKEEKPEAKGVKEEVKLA
Protocol: (§2) SAHA and suramin were used as positive controls. The tested compounds were dissolved into 20 mM stock in 100% DMSO. […] Ten microliters of trypsin and Ac-peptide substrate/Tris buffer solution were added to start the reaction, followed by a 1-h incubation at room temperature for HDACs 1–3 and 6. Ten microliters of Ac-peptide substrate/Tris buffer solution was added to start the reaction, followed by a 4-h incubation at room temperature and a further 2-h incubation with trypsin solution for HDAC8 and Sirt 2. […] This experiment was performed only once.

[11] = target: T2, hHDAC6 (Homo sapiens, UniProt Q9UBN7); assay: Human HDAC inhibition assay, hHDAC6; assay type: biochemical; conditions: performed only once; read-out: Inhibitory Activity IC50, hHDAC6
T2 construct: purchased BPS Bioscience 50046
T2 sequence (Q9UBN7 whole entry): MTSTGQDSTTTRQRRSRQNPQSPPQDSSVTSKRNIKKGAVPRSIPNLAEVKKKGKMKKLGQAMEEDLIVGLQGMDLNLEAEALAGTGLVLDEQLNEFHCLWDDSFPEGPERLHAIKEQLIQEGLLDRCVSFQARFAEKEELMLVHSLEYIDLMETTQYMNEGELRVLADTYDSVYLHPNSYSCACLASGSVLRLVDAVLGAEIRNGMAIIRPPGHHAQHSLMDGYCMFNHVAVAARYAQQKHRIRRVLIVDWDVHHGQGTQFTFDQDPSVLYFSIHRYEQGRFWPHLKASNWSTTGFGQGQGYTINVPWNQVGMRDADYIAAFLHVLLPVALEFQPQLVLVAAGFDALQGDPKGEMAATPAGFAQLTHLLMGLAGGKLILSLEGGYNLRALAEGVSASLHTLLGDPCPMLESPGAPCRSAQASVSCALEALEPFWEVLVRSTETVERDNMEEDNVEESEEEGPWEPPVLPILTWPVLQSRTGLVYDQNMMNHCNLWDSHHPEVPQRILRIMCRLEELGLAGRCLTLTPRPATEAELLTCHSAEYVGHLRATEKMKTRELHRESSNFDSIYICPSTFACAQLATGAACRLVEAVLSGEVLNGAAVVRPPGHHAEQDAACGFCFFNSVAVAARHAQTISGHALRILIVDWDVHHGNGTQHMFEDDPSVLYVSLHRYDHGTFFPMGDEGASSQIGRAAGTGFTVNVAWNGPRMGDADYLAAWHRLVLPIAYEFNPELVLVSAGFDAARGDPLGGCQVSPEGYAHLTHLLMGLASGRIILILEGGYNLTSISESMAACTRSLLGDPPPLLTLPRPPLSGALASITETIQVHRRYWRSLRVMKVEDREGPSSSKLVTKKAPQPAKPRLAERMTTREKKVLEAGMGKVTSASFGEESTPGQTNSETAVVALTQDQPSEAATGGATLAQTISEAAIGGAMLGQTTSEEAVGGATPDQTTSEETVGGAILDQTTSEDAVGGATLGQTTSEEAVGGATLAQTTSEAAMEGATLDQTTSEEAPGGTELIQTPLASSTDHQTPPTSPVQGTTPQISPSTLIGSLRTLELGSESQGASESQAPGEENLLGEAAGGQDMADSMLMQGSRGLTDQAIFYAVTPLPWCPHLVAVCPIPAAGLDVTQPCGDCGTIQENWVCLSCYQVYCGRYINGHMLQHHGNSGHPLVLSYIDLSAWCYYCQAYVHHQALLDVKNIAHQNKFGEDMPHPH
Protocol: as §2

[12] = target: T3, hSirt2 (Homo sapiens, UniProt Q8IXJ6); assay: Human HDAC inhibition assay, hSirt2; assay type: biochemical; conditions: performed only once; read-out: Inhibitory Activity IC50, hSirt2
T3 construct: purchased BPS Bioscience 50013
T3 sequence (Q8IXJ6 whole entry): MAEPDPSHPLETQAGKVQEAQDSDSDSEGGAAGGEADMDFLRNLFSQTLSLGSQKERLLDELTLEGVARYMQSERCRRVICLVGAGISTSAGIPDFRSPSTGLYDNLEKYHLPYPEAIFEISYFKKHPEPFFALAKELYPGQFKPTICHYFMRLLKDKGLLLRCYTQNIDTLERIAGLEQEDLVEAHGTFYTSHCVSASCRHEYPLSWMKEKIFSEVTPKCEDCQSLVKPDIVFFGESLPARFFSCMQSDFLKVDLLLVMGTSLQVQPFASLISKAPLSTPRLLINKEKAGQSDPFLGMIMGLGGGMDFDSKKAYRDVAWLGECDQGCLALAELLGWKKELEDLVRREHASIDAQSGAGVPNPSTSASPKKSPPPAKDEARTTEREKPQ
Protocol: as §2

[13] = 30 mg/kg and 60 mg/kg treatment groups, i.p., 5 days

Compound: Cl.Cn1cc(CN2CCC3(CCN(c4ncc(C(=O)NO)cn4)C3)C2)c2cc(C#N)ccc21 (centres unmarked) [JX21108]
- EC50 [1]: 3.57 ± 0.06 nM
- EC50 ([1]; Plasmodium falciparum, 3D7, 72 h): 3.6 nM
- EC50 [2]: 2.9 ± 0.7 nM
- EC50 [3]: 7 ± 0.6 nM
- EC50 [4]: 2.2 ± 0.2 nM
- EC50 ([5]; three strains tested, read-out: EC50 values on strains GB4, C2A and CP286): 2 to 8 nM
- EC50 ([5]; variety of geographically representative strains, read-out: EC50 against drug-sensitive and multidrug-resistant strains of P. falciparum): 2 to 7 nM
- CLint scaled at 1 µM ([6]; mouse liver microsomes, read-out: CL in liver microsomes): 7.32 mL/min/kg
- half-life at 1 µM ([6]; read-out: T1/2 in liver microsomes): 12.4 h
- half-life at 1 µM ([6]; read-out: half-life in mouse liver microsomes (converted)): 12.4 h
- day on which parasites were completely cleaned up [7, 13]: 17 days
- day till which parasites were detected [7, 13]: 8 days
- relapse of malaria ([7]; 90 mg/kg treatment group, i.p., 5-day treatment): no relapse of malaria was observed
- survival of infected mice ([7]; JX21108-treated groups 30–90 mg/kg): all the mice survived
- in vivo antiplasmodial activity in P. yoelii-infected mice ([7]; all doses tested (30–90 mg/kg), i.p., 5 days): strong in vivo antiplasmodial activity
- effect on liver infection or subsequent blood-stage P. berghei infection ([8]; single 30 mg/kg dose i.v.): did not produce significant effects
- liver infection (bioluminescence) ([8]; single 60 mg/kg dose i.v., 2 dpi): did not show signs of liver infection
- blood-stage infection ([8]; single 60 mg/kg dose i.v., until 8 dpi): nor did the treated mice show any blood-stage infection
- shift in sensitivity on PfHDAC1 KD ([9]; 3D7^HDAC1-glmS vs 3D7^HDAC1-TY1): 5.5 fold
- EC50 ([9]; Plasmodium falciparum, 3D7, 4 h, read-out: EC50 for 3D7^HDAC1-glmS): 20.5 ± 6.95 nM
- IC50 [10]: 1.8 nM
- IC50 [11]: 66 nM
- IC50 [12]: > 10000 nM
